The target in assay [1] is T1, Cannabinoid receptor 1 (Rattus norvegicus, UniProt P20272). Kind of assay: Displacement of [3H]HU-243 from Sabra rat brain synaptosome CB1 receptor assessed as inhibition constant incubated for 90 mins. Type of assay: subcellular.
Assay [2] deals with T2, Cannabinoid receptor 2 (Homo sapiens, UniProt P34972). Nature of the assay: Displacement of [3H]HU-243 from CB2 receptor (unknown origin) extracted from green monkey COS-7 cell membrane assessed as inhibition constant incubated for 90 mins. Type of assay: cell membranes.
T2 sequence (P34972 whole entry): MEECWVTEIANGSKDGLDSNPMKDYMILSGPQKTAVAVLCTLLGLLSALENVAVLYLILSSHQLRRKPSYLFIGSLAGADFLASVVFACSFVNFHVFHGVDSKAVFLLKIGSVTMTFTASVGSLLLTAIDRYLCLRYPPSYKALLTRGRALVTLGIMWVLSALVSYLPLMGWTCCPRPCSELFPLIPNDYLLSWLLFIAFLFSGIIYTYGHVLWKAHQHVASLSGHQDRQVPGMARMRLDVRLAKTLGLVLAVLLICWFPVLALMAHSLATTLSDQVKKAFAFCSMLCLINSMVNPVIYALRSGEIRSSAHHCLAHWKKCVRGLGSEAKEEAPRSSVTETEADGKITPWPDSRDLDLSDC
A short description of assay [3]: Selectivity index, ratio of Ki for Sabra rat brain synaptosome CB1 receptor to Ki for CB2 receptor (unknown origin) extracted from green monkey COS-7 cells.
In assay [4] the target is T3, Cannabinoid receptor 1 (Homo sapiens, UniProt P21554). Nature of the assay: Binding affinity to CB1 receptor (unknown origin) assessed as inhibition constant.
T3 sequence (P21554 whole entry): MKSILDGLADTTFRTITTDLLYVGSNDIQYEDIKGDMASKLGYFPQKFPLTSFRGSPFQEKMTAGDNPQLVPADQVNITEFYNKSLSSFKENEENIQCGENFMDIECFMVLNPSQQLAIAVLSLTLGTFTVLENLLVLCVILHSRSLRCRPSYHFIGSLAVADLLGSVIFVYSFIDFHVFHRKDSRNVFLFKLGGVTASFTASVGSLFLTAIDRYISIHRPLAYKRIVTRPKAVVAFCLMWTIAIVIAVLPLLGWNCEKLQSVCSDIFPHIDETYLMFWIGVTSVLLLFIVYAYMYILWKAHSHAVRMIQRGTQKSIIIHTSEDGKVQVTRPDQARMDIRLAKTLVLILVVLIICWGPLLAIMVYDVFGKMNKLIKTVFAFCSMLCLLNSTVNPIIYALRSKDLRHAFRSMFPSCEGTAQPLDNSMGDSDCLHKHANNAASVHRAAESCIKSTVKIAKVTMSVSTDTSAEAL
A short description of assay [5]: Inhibition of [14C]-arachidonoylethanolamide uptake in rat RBL-2H3 cells assessed as increase in AEA level incubated for 5 mins by scintillation counting. Type of assay: functional, cell-based. The settings on record: RBL-2H3, 5 min.
Assay [6] addresses T2, Cannabinoid receptor 2. Kind of assay: Binding affinity to CB2 receptor (unknown origin) assessed as inhibition constant.
The nature of assay [7]: Selectivity ratio of Ki for CB1 receptor (unknown origin) to Ki for CB2 receptor (unknown origin).
For assay [8], the target named is T3, Cannabinoid receptor 1. Kind of assay: Displacement of [3H]CP-55,940 from human CB1 receptor extracted from HEK293 cell membrane assessed as inhibition constant incubated for 90 mins by liquid scintillation spectrophotometric analysis. It counts as cell membranes.
Assay [9] concerns the target T2, Cannabinoid receptor 2. Nature of the assay: Displacement of [3H]CP-55,940 from human CB2 receptor extracted from HEK293 cell membrane assessed as inhibition constant incubated for 90 mins by liquid scintillation spectrophotometric analysis. It counts as cell membranes.
The species entered for a further assay is Homo sapiens. Kind of assay: Selectivity ratio of Ki for human CB1 receptor extracted from HEK293 cell membrane to Ki for human CB2 receptor extracted from HEK293 cell membrane.
Assay [10] has as its target Transient receptor potential cation channel subfamily V member 1 (Homo sapiens, UniProt Q8NER1). Nature of the assay: Agonist activity at human TRPV1 receptor expressed in HEK293 cells assessed as effect on [Ca2+]i preincubated with capsazepine for 30 mins followed by compound addition by Fluo-3 probe based fluorescence analysis. Type of assay: cell-based.
In assay [11] the target is T4, Fatty-acid amide hydrolase 1 (Mus musculus, UniProt O08914).
T4 sequence (O08914 whole entry): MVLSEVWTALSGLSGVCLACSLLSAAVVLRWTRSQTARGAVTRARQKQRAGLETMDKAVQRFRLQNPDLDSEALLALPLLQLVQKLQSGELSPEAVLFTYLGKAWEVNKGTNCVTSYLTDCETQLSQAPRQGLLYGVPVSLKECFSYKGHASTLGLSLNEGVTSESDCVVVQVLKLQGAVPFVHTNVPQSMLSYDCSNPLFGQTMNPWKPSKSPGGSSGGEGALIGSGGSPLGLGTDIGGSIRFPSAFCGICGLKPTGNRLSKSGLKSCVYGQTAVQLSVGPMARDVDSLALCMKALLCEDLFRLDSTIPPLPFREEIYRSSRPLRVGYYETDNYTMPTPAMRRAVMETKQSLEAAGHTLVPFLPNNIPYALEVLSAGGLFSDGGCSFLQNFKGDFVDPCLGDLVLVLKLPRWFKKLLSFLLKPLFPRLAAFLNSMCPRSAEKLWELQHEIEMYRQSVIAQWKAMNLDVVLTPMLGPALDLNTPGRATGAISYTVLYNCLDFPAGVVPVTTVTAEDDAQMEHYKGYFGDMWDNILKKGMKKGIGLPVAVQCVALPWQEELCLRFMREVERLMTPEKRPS
Nature of the assay: Inhibition of FAAH-mediated [14C]-AEA hydrolysis in mouse N18TG2 cell membrane incubated for 30 mins by scintillation counting. Type of assay: cell membranes.

Assay [12] addresses T3, Cannabinoid receptor 1. Kind of assay: Antagonist activity at human CB1 receptor expressed in HEK293T cells co-transfected with pCRE-Luc plasmid preincubated with compound for 30 mins followed by WIN55,212 addition and measured after 6 hrs by Dual-luciferase assay. Type of assay: functional, cell-based.
For assay [13], the target named is T2, Cannabinoid receptor 2. Nature of the assay: Agonist activity at human CB2 receptor expressed in HEK293T cells co-transfected with pCRE-Luc plasmid preincubated with compound for 30 mins followed by forskolin addition and measured after 6 hrs by Dual-luciferase assay. Type of assay: functional, cell-based.
In assay [14] the target is T1, Cannabinoid receptor 1. Nature of the assay: Displacement of [3H]HU-243 from Sabra rat brain synaptosome CB1 receptor assessed as inhibition constant. It counts as subcellular.
Assay [15] addresses T1, Cannabinoid receptor 1. Nature of the assay: Displacement of [3H]CP-55,940 from Sabra rat brain synaptosome CB1 receptor assessed as inhibition constant incubated for 90 mins. Type of assay: subcellular.
For assay [16], the target named is T2, Cannabinoid receptor 2. Nature of the assay: Displacement of [3H]CP-55,940 from human CB2 receptor extracted from CHO cell membrane assessed as inhibition constant incubated for 90 mins. It counts as cell membranes.
A short description of assay [17]: Selectivity index, ratio of Ki for Sabra rat brain synaptosome CB1 receptor to Ki for human CB2 receptor extracted from CHO cell membrane.

pEC50, pIC50, pKi: −log10 of the molar value. Several values for one entry are separate records, joined by “and”; a condition that tells them apart may be missing. Equal values may be shown once.

T1 sequence (P20272 whole entry): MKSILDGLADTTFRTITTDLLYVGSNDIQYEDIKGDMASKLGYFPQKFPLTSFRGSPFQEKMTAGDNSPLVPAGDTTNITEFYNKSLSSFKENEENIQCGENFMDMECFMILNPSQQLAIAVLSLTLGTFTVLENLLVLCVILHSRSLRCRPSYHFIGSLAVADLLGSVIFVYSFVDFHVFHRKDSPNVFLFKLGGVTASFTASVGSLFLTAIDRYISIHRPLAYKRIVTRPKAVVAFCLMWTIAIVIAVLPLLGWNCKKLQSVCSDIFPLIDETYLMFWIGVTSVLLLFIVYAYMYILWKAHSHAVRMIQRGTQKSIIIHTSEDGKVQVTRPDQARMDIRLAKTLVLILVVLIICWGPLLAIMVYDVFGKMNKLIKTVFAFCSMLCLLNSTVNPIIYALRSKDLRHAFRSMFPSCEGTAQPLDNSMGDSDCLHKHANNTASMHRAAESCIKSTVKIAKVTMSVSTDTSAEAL
Sequence of Transient receptor potential cation channel subfamily V member 1 (Q8NER1 whole entry): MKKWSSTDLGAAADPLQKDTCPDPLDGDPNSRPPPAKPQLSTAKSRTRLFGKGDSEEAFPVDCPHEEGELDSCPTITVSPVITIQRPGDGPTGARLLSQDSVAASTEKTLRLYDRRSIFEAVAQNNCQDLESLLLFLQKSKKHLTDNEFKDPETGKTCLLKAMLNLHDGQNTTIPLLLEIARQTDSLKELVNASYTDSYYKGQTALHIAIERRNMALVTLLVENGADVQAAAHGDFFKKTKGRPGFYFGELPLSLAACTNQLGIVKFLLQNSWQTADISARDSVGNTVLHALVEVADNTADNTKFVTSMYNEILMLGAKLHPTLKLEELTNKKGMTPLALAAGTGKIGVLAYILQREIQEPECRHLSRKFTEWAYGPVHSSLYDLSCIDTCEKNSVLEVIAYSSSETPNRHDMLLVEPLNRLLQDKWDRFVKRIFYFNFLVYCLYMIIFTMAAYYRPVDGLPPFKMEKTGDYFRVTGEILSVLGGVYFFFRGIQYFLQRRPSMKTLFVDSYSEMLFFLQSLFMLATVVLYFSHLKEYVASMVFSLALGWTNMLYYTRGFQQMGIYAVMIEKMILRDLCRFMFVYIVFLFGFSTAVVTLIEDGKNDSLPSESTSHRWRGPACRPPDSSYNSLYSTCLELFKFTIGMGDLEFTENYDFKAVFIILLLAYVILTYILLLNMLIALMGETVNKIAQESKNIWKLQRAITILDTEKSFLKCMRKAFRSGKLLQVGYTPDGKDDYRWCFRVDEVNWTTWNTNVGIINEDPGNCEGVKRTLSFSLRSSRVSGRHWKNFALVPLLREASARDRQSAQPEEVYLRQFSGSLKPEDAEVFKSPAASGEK

For the compound `C=C(C)[C@H]1CCC(CO)=C[C@@H]1c1c(O)cc(CCCCC)cc1O`, the figures for the pKi on Cannabinoid receptor 1 [1] and on Cannabinoid receptor 2 [2] were 8.28 and 7.00, respectively. Further, the Ratio Ki in [3] came to 0.05.
For the compound `CCCCCCC(C)(C)c1cc(OC)c([C@@H]2C=C(CO)[C@@H]3C[C@H]2C3(C)C)c(OC)c1` [ONTERNABEZ], at Cannabinoid receptor 1 [4], the pKi is less than 6.00.
With `C=C(C)[C@H]1CCC(CO)=C[C@@H]1c1c(O)cc(C(C)(C)CCCCCC)cc1O`, the pKi on Cannabinoid receptor 1 [1] was 8.60; at Cannabinoid receptor 2 [2] it was 7.36. Also, the pIC50 in assay [5] was 5.15.
The like results for `C=C(C)[C@@H]1CCC(CO)=C[C@H]1c1c(O)cc(C(C)(C)CCCCCC)cc1O` were, in that order, no more than 5.40, 6.17 and 4.90.
Turning to `C=C(C)[C@H]1CCC(C(=O)O)=C[C@@H]1c1c(O)cc(C(C)(C)CCCCCC)cc1O`, the figures for the pKi on Cannabinoid receptor 1 [4] and on Cannabinoid receptor 2 [6] were 8.24 and 6.81, respectively. For the same compound, in assay [7], the Ratio Ki came out at 0.03.
`C=C(C)[C@@H]1CCC(C)=C[C@H]1c1c(O)cc(CCCCC)c(C(=O)OC)c1O`: the pKi on Cannabinoid receptor 1 [8] was 8.51; at Cannabinoid receptor 2 [9], 9.10. The Ratio Ki in the assay filed under Homo sapiens turned out to be 3.9.
Regarding `C=C(C)[C@H]1CCC(C)=C[C@@H]1c1c(O)cc(C(C)(C)CCCCCC)cc1O`, the pKi on Cannabinoid receptor 1 [1] is 7.76; at Cannabinoid receptor 2 [2] it was 6.68. The pIC50 in [5] is 5.00.
For `C=C(C)[C@H]1CCC(C(=O)O)=C[C@@H]1c1c(O)cc(CCCCC)cc1O`, the pKi at Cannabinoid receptor 1 [4] is 7.88; on Cannabinoid receptor 2 [6], 6.50. The Ratio Ki in [7] was determined as 0.04.
Consider `C=C(C)[C@H]1CCC(C)=C[C@@H]1c1c(O)cc(CCCCC)cc1O`, for which the pEC50 in assay [10] was 5.49. For the same compound, the pIC50 in [5] is 4.77; in [11] it was 4.20.
Turning to `COc1cc(C(C)(C)CCCCCCN=C=S)cc(OC)c1[C@@H]1C=C(CO)[C@@H]2C[C@H]1C2(C)C`, the pKi on Cannabinoid receptor 1 [4] is less than 6.00; on Cannabinoid receptor 2 [6] it was 6.92.
With `C=C(C)[C@@H]1CCC(C)=C[C@H]1c1c(O)cc(C(C)(C)CCCCCC)cc1O`, the values for the pKi on Cannabinoid receptor 1 [1] and on Cannabinoid receptor 2 [2] were less than 5.00 and 5.74, respectively. For the same compound, the pIC50 in [5] was 4.85.
As to `C=C(C)[C@@H]1CCC(C)=C[C@H]1c1c(O)cc(CCC)cc1O` [CANNABIDIVARIN], on Cannabinoid receptor 1 [4], the pKi was less than 6.00.
In the case of `C=C(C)[C@H]1CCC(C)=C[C@@H]1c1c(O)cc(CCCCC)c(C(=O)OCC(O)CCC)c1O` (stereo partly specified), the pIC50 at Cannabinoid receptor 1 [12] is 6.68. For the same compound, the pEC50 on Cannabinoid receptor 2 [13] was 7.05.
Consider `CCCCCCC(C)(C)c1cc(OC)c([C@H]2C=C(CO)[C@H]3C[C@@H]2C3(C)C)c(OC)c1`, for which, on Cannabinoid receptor 1 [14], the pKi is less than 5.00.
On to `C=C(C)[C@H]1CCC(C)=C[C@@H]1c1c(O)cc(CCC)c(C(=O)OC)c1O`, for which the pKi on Cannabinoid receptor 1 [8] was 6.46; on Cannabinoid receptor 2 [9] it was 7.55. For the same compound, the Ratio Ki in the assay listed under Homo sapiens was 12.3.
For the compound `C=C(C)[C@@H]1CCC(C)=C[C@H]1c1c(OC)cc(C(C)(C)CCCCCC)cc1OC`, the pKi on Cannabinoid receptor 1 [1] and at Cannabinoid receptor 2 [2] was less than 6.00 in each case.
Turning to `C=C(C)C1CCC(C)=CC1O` (stereo unspecified), the pKi was less than 6.00 at Cannabinoid receptor 1 [8] and 6.43 on Cannabinoid receptor 2 [9].
On to `C=C(C)[C@@H]1CCC(CO)=C[C@H]1c1c(O)cc(CCCCC)cc1O`, for which the pKi at Cannabinoid receptor 1 [1] and at Cannabinoid receptor 2 [2] was less than 6.00 in each case.
In the case of `C=C(C)[C@H]1CCC(C)=C[C@@H]1c1c(O)cc(CCCCC)c(C(=O)OCCO)c1O`, at Cannabinoid receptor 1 [8], the pKi is 6.59.
On to `C=C(C)[C@@H]1CCC(C(=O)O)=C[C@H]1c1c(O)cc(CCCCC)cc1O`, for which the pKi on Cannabinoid receptor 1 [1] and at Cannabinoid receptor 2 [2] was less than 6.00 in each case.
As for `C=C(C)[C@@H]1CCC(C(=O)O)=C[C@H]1c1c(O)cc(C(C)(C)CCCCCC)cc1O`, the pKi at Cannabinoid receptor 1 [4] and at Cannabinoid receptor 2 [6] was less than 6.00 throughout.
On to `CCCCCCC(C)(C)c1cc(O)c(-c2c(CO)cccc2C(C)C)c(OC)c1`, for which the pKi at Cannabinoid receptor 1 [4] was less than 6.00; on Cannabinoid receptor 2 [6] it was 9.19 and 9.55. The Ratio Ki in assay [7] was found to be 17.
`CCCCCc1cc(O)c([C@H]2C=C(CO)CC[C@@H]2C(C)C)c(O)c1`: the pKi at Cannabinoid receptor 1 [15] is 7.12; on Cannabinoid receptor 2 [16], 7.92. In addition, the Ratio Ki in assay [17] was 6.3.
As to `COc1cc(C(C)(C)CCCCCCN=C=S)cc(OC)c1[C@H]1C=C(CO)[C@H]2C[C@@H]1C2(C)C`, the pKi is 5.57 on Cannabinoid receptor 1 [4] and 7.88 at Cannabinoid receptor 2 [6]. Further, the Ratio Ki in [7] came out at 203.
Regarding `C=C(C)[C@H]1CCC(C)=C[C@@H]1c1c(OC)cc(C(C)(C)CCCCCC)cc1OC`, the pKi at Cannabinoid receptor 1 [1] and on Cannabinoid receptor 2 [2] was less than 6.00 each time.
Regarding `CCCCCc1cc(O)c([C@@H]2C=C(CO)CC[C@H]2C(C)C)c(O)c1`, the pKi on Cannabinoid receptor 1 [15] and on Cannabinoid receptor 2 [16] was less than 6.00 each time.
